Data reported in patent publication US9381172B2, “Small molecule choline kinase inhibitors, screening assays, and methods for treatment of neoplastic disorders” (UNIVERSITY OF LOUISVILLE RESEARCH FOUNDATION, INC., priority 2009, dated 2016).
Like-named read-outs stand apart in the source and are kept apart here.

Tests used:
HeLa Cells [1] = experiment: Cell Growth Inhibition, HeLa cells (trypan blue exclusion); assay type: cell-based; conditions: for IC50: Homo sapiens, HeLa, 48 h after treatment, 50% of vehicle-treated cell growth
Procedure: (§1) HeLa (ATCC: CCL-2), A549-human lung carcinoma (ATCC: CCL-185), Lewis lung carcinoma (LLC) (ATCC: CRL-1642), and melanoma cells (ATCC: CRL-11147) were cultured in DMEM (Hyclone) supplemented with 10% fetal bovine serum (Hyclone) and 50 μg/mL gentamicin sulfate (Invitrogen). Jurkat leukemia cells were cultured in RPMI (Hyclone) supplemented with 10% fetal bovine serum and 50 μg/mL gentamicin sulfate. Human mammary epithelial cells were grown in mammary epithelial basal medium (Lonza) supplemented according to manufacturer's protocol. All cell lines were maintained at 5% CO2 at 37° C.
(§2) All cell lines were plated at 1×10^5/mL in the appropriate medium. For suspension cells, the tested compound was added immediately to the medium, whereas the tested compound treatment was initiated the following day for adherent cell lines. For overexpression studies, HeLa cells were transiently transfected with empty vector or vector containing wild type choline kinase twenty-four hours prior to addition of increasing concentrations of CK37. Cells were then collected 48 h after treatment, and cell number and viability were determined by trypan blue exclusion. IC50s were calculated at the tested compound concentration needed for 50% of vehicle-treated cell growth (see Table 4). The data represented are the mean±STD from triplicate measurements from three independent experiments.

Jurkat Cells = experiment: Cell Growth Inhibition, Jurkat cells (trypan blue exclusion); assay type: cell-based; conditions: for IC50: Homo sapiens, Jurkat, 48 h after treatment, 50% of vehicle-treated cell growth
Procedure: as §1, §2

[2] = test system: endogenous choline kinase (HeLa cells); experiment: Choline kinase activity in whole HeLa cells (radiolabeled choline); assay type: cell-based
Procedure: For HeLa cell labeling, cells were seeded at 1×10^5 cells/mL and incubated with increasing concentrations of the tested compound for 48 hours. Methyl[^14C]-choline chloride was added 24 hours before cell harvest, and cells were extracted and analyzed as described above. Densitometry units were normalized to total protein levels for each sample.

[3] = test system: various neoplastic cell lines from both solid and hematologic origins; experiment: Cell Growth Inhibition, various neoplastic cell lines; assay type: cell-based; conditions: all tumor cell lines investigated; FIG. 3A; read-out: IC50 values of cell growth suppression
Procedure: as §1, §2

[4] = test system: primary mammary epithelial cells (HMEC); experiment: Cell Growth Inhibition, primary mammary epithelial cells; assay type: cell-based, human; conditions: FIG. 3B
Procedure: as §1, §2

[5] = test system: MDA-MB-231 mammary carcinoma cells; experiment: Cell Growth Inhibition, MDA-MB-231 cells; assay type: cell-based; conditions: FIG. 3B
Procedure: as §2

HeLa Cells [6] = experiment: Soft agar colony formation; assay type: cell-based; conditions: 5 μM CK37; 14 days; Control: 2506±158
Procedure: HeLa cells were plated at a density of 25×10^3 cells per 60-mm plate with 3 mL bottom agar (0.6%) and 2 mL top agar (0.3%) in normal growth medium. Cells were fed every three days by addition of a new layer of top agar which contained increasing concentrations of the tested compound. After 14 days of growth, colonies were counted in random from 1 cm squared sections of each plate.

Lewis Lung Carcinoma = experiment: Mouse tumors: Lewis lung carcinoma in C57B1/6 mice; assay type: in vivo; conditions: 0.08 mg/g i.p. daily for nine days
Procedure: Exponentially growing Lewis lung carcinoma cells were collected, washed twice, and resuspended in PBS (1×10^7/mL). C57B1/6 female mice (20 g) were injected s.c. with 0.1 mL of the suspension. Body weight and tumor growth were monitored daily throughout the study. Tumor masses were determined by measurement with Vernier calipers using the formula: mass (mg)=[width^2 (mm)×length (mm)]/2. Mice with established tumors (between 130 and 190 mg) were randomized into vehicle control or the tested compound treated groups. Vehicle control groups received i.p. injections of 50 μL DMSO, whereas treated groups received 0.08 mg/g the tested compound in 50 μL DMSO at the indicated time points. All protocols were approved by the University of Louisville Institutional Animal Care and Use Committee.

[7] = Tolerability of intraperitoneal CK37 in C57B1/6 mice; assay type: in vivo
Procedure: In order to investigate some possible non-toxic doses of CK37 for use in vivo, we intraperitoneally injected C57B1/6 mice with 0.06, 0.07, and 0.08 mg/g of CK37. […] C57B1/6 mice bearing Lewis Lung Carcinoma xenografts (mean baseline mass=143±14 mg) were given intraperitoneal injections of 0.08 mg/g CK37 daily for nine days. As shown in FIG. 5A-B, CK37 administration suppressed tumor growth by 48% compared to the vehicle control group.

[8] = test system: choline kinase (HeLa lysates); experiment: Choline kinase activity assay of HeLa cell lysates; assay type: biochemical; conditions: HeLa cell lysate; FIG. 7
Procedure: Choline kinase activity was assayed as described previously in Hernandez-Alcoceba et al. “Choline kinase inhibitors as a novel approach for antiproliferative drug design,” Oncogene 1997, 15:2289-2301, the disclosure of which is incorporated herein by this reference. For HeLa cell lysate, equal volume of lysate was incubated in the presence or absence of the tested compound in kinase assay buffer (100 mM Tris-HCl, 100 mM MgCl2, 10 mM ATP, 200 μM choline, and 2 μM methyl[^14C]-choline chloride (50-60 μCi, mmol). Reactions were carried out at 37° C. for one hour and immediately stopped by addition of TCA (Trichloroacetic Acid) to a final concentration of 16%. The TCA soluble fraction was then washed 3× with four volumes of water saturated ethyl ether, and dried under vacuum. Metabolites were separated by thin layer chromatography using 60 Å silica gel plates and a liquid phase consisting of 0.9% NaCl:methanol:ammonium hydroxide (50:70:5; V:V:V). Radioactive images were resolved by PhosphorImager screening and densitometry was performed using Image Quant software.

choline kinase = conditions: reported; cited from earlier work
[9] = test system: HT-29 human adenocarcinoma cells; conditions: reported; cited from earlier work
[10] = test system: HeLa cell endogenous choline kinase; conditions: reported; cited from earlier work
[11] = reported; cited from earlier work

Row | SMILES | IC50 (HeLa Cells [1]) [µM] | IC50 (Jurkat Cells) [µM] | further results
1 | CCc1ccc(-c2nnc(SCC(=O)Nc3cc(C)cc(C)c3)[nH]2)cc1 [CK37, N-(3,5-dimethylphenyl)-2-[[5-(4-ethylphenyl)-1H-1,2,4-triazol-3-yl]sulfanyl]acetamide] | 4.2 | 5.4 | inhibition of endogenous choline kinase activity in whole cells ([2]; 10 μM, 48 hours, FIG. 2B): 61.7%±9.7%; decrease in HeLa cell endogenous choline kinase ([2]; about the same concentration as MN58B, somewhat different conditions): 60%; IC50 [3]: 5 to 10 µM; CK37 concentration compared for growth suppression [4]: 10 µM; CK37 concentration compared for growth suppression ([5]; MDA-MB-231): 0.5 µM; difference in selectivity against neoplastic versus primary cell growth ([5]; MDA-MB-231 versus HMEC): 20 fold; number of soft agar colonies (HeLa Cells [6]): 360±77; tumor growth suppression compared to the vehicle control group (Lewis Lung Carcinoma): 48%; wet weight of resected tumors at the end of treatment (Lewis Lung Carcinoma; Vehicle: 1109±107 mg, p<0.01): 648 ± 96 mg; clinical signs or symptoms of distress ([7]; 0.06, 0.07, and 0.08 mg/g intraperitoneally): no clinical signs or symptoms of distress; dose limiting toxicity ([7]; mice): > 80 mg/kg
2 | CCc1ccc(C(=O)CN2C(=O)NC(CC)(c3ccccc3)C2=O)cc1 (stereo not shown) [E] | > 25 | > 10 | 
3 | CC(OC(=O)CCC(=O)c1cccs1)C(=O)Nc1cccc2ccccc12 (stereo not shown) [G] | > 25 | > 10 | 
4 | CCCNC(=O)COC(=O)CN1C(=O)N[C@@](C)(c2ccc(C)cc2)C1=O [H] | > 25 | > 10 | 
5 | CCC(=O)c1ccc(OCC(=O)OCc2csc(-c3ccc(OC)cc3)n2)cc1 [I] | > 25 | > 10 | 
6 | COc1cc(C(C)=O)ccc1OCC(=O)NCc1ccc(C)cc1 [J] | > 25 | > 10 | 
7 | COc1ccccc1CNC(=O)CN1C(=O)NC(C)(c2ccc(C)cc2)C1=O (stereo not shown) [K] | > 25 | > 10 | 
8 | CN(C)c1cc[n+](Cc2ccc(CCCCc3ccc(C[n+]4ccc(N(C)C)cc4)cc3)cc2)cc1.[Br-].[Br-] [MN58B] |  |  | IC50 (choline kinase): 4.2 µM; IC50 [9]: 0.5 µM; inhibition in HeLa cell endogenous choline kinase [10]: 75%; dose limiting toxicity [11]: 5 to 10 mg/kg
9 | COCCNC(=O)CN1C(=O)NC(C)(c2ccc(C)cc2)C1=O (stereo not shown) [M] | > 25 | > 10 | 
10 | C=CCn1c(COc2cccc(C)c2)nnc1SCc1ncc(-c2ccccc2)o1 [O] | > 25 | > 10 | 

More lines, main results first:

Row | IC50 (HeLa Cells [1]) [µM] | IC50 (Jurkat Cells) [µM] | SMILES | further results
11 | > 25 | > 10 | CCC1(c2ccccc2)NC(=O)N(CC(=O)c2ccc(OC)cc2OC)C1=O (stereo not shown) [A] | 
12 | > 25 | > 10 | C[C@@]1(c2ccc3ccccc3c2)NC(=O)N(CC(=O)OCC(=O)NCCC#N)C1=O [B] | 
13 | 12.6 | 9.8 | COc1ccc(OCC(=O)OC(C)C(=O)Nc2cccc3ccccc23)cc1 (stereo not shown) [CP6] | HeLa cell proliferation (HeLa Cells [1]; FIG. 8): selectively suppresses HeLa cell proliferation; Jurkat cell proliferation (Jurkat Cells; FIG. 9): selectively suppresses Jurkat cell proliferation; endogenous choline kinase activity [8]: dose-dependent decrease in endogenous choline kinase activity
14 | 15.2 | > 10 | CSc1ccc(C=CC(=O)OCC(=O)NC(Cc2ccccc2)C(C)=O)cc1 (stereo not shown) [C] | 
15 | 18.3 | > 10 | COc1ccccc1COC(=O)CN1C(=O)N[C@@](C)(c2ccc(C)cc2)C1=O [P] | 
